Holding throughout (type): biochemical
One assay deals with PKA (Homo sapiens, UniProt P17612). The assay can be described thus: In vitro inhibitory activity assay for PKA, ADP-Glo, reported as selectivity ratio vs ROCK2. The settings on record: Ki for PKA divided by Ki of ROCK2 (Method B). Here is the method:
In Vitro Inhibitory Activity Assay Description for PKA
The effectiveness of compounds of the present invention to inhibit PKA activity can be determined in a 10 μL assay containing 40 mM Tris pH7.5, 20 mM MgCl2 0.1 mg/mL BSA, 50 μM DTT and 260 μM peptide substrate (kemptide) using an ADP-Glo kit (Promega). Compounds were dissolved in DMSO such that the final concentration of DMSO was 1% in the assay. All reactions/incubations are performed at 25° C. Compound and PKA enzyme (6 μL) were mixed and incubated for 30 min. Reactions were initiated by addition of ATP (4 μL) such that the final concentration of ATP in the assay was 10 μM. After a 30 minute incubation 10 μL of ADP-Glo Reagent was added and after a further 1 hour incubation 20 μL of Kinase Detection Buffer was added and the mixture incubated for a further 45 minutes. The luminescent signal was measured on a luminometer. […] Compounds were tested in dose-response format and the inhibition of kinase activity was calculated at each concentration of compound. To determine the IC50 (concentration of compound required to inhibit 50% of the enzyme activity) data were fit to a plot of % inhibition vs Log10 compound concentration using a sigmoidal fit with a variable slope and fixing the maximum to 100% and the minimum to 0%. To determine the Ki values the Cheng-Prusoff equation was utilized (Ki=IC50/(1+[S]/Km).
In vitro inhibitory activities for PKA were reported as selectivity ratio vs. ROCK2. Selectivity ratio PKA/ROCK2 was calculated by dividing the Ki value for PKA by Ki value of ROCK2 (Method B) and reported into table 1.
On the technique in general: In ADP-Glo the light output rises with the ADP produced.

The next assay concerns the target ROCK2 (Homo sapiens, UniProt O75116). The assay can be described thus: In vitro Rho kinase inhibitory activity assay, ADP-Glo, Method B (ATP 200 μM). The settings on record: read-out: Method B ROCK 2 (Ki). Here is the method:
(§1) In Vitro Inhibitory Activity Assay Description (Method B)
(§2) The effectiveness of compounds of the present invention to inhibit Rho kinase activity can be determined in a 10 μL assay containing 40 mM Tris pH7.5, 20 mM MgCl2 0.1 mg/mL BSA, 50 μM DTT and 2.5 μM peptide substrate (Myelin Basic Protein) using an ADP-Glo kit (Promega). Compounds were dissolved in DMSO such that the final concentration of DMSO was 1% in the assay. All reactions/incubations are performed at 25° C. Compound (2 ul) and either Rho kinase 1 or 2 (4 μL) were mixed and incubated for 30 min. Reactions were initiated by addition of ATP (4 μL) such that the final concentration of ATP in the assay was 200 μM. After a 1 hour incubation 10 μL of ADP-Glo Reagent was added and after a further 45 minute incubation 20 ul of Kinase Detection Buffer was added and the mixture incubated for a further 30 minutes. The luminescent signal was measured on a luminometer. […] Compounds were tested in dose-response format and the inhibition of kinase activity was calculated at each concentration of compound. To determine the IC50 (concentration of compound required to inhibit 50% of the enzyme activity) data were fit to a plot of % inhibition vs Log 10 compound concentration using a sigmoidal fit with a variable slope and fixing the maximum to 100% and the minimum to 0%. To determine the Ki values the Cheng-Prusoff equation was utilized (Ki=IC50/(1+[S]/Km).

The next assay has as its target ROCK1 (Homo sapiens, UniProt Q13464). The assay is described as above. The settings on record: read-out: Method B ROCK 1 (Ki). Here is the method: as §1, §2

Some results are limits rather than exact numbers.

Sequence of ROCK1 (Q13464 whole entry): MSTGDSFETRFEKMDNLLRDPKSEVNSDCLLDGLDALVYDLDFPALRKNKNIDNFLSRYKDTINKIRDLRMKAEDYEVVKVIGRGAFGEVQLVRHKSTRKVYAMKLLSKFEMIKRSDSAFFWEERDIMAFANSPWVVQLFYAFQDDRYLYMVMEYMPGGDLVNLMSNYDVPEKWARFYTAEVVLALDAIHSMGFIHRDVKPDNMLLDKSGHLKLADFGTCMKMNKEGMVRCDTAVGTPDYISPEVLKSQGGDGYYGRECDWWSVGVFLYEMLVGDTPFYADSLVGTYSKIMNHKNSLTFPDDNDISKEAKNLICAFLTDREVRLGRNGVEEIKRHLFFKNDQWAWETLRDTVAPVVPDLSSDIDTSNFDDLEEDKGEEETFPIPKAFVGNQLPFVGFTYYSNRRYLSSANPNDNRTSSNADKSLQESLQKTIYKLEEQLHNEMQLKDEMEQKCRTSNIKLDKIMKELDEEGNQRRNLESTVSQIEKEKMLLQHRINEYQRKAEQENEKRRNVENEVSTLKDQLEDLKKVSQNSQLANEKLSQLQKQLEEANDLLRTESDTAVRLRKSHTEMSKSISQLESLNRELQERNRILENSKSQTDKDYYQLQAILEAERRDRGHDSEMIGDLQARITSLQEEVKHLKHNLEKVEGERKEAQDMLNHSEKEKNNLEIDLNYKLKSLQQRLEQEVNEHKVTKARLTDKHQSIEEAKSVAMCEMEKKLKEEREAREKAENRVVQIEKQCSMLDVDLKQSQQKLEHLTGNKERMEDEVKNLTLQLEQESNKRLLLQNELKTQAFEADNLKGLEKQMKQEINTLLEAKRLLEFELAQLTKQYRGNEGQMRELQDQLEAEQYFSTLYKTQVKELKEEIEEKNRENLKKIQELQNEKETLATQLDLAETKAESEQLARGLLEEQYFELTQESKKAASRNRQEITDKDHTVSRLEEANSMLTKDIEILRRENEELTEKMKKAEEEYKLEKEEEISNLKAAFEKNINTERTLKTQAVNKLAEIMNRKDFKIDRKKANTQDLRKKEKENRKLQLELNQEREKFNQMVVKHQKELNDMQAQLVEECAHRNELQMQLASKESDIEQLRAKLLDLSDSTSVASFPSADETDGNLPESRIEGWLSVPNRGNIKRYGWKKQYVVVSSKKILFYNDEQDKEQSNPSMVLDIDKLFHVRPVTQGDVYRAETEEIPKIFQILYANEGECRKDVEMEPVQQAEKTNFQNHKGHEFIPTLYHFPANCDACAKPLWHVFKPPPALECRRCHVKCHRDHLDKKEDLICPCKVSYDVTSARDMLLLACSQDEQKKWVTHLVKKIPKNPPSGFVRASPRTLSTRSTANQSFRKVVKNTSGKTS
Sequence of ROCK2 (O75116 whole entry): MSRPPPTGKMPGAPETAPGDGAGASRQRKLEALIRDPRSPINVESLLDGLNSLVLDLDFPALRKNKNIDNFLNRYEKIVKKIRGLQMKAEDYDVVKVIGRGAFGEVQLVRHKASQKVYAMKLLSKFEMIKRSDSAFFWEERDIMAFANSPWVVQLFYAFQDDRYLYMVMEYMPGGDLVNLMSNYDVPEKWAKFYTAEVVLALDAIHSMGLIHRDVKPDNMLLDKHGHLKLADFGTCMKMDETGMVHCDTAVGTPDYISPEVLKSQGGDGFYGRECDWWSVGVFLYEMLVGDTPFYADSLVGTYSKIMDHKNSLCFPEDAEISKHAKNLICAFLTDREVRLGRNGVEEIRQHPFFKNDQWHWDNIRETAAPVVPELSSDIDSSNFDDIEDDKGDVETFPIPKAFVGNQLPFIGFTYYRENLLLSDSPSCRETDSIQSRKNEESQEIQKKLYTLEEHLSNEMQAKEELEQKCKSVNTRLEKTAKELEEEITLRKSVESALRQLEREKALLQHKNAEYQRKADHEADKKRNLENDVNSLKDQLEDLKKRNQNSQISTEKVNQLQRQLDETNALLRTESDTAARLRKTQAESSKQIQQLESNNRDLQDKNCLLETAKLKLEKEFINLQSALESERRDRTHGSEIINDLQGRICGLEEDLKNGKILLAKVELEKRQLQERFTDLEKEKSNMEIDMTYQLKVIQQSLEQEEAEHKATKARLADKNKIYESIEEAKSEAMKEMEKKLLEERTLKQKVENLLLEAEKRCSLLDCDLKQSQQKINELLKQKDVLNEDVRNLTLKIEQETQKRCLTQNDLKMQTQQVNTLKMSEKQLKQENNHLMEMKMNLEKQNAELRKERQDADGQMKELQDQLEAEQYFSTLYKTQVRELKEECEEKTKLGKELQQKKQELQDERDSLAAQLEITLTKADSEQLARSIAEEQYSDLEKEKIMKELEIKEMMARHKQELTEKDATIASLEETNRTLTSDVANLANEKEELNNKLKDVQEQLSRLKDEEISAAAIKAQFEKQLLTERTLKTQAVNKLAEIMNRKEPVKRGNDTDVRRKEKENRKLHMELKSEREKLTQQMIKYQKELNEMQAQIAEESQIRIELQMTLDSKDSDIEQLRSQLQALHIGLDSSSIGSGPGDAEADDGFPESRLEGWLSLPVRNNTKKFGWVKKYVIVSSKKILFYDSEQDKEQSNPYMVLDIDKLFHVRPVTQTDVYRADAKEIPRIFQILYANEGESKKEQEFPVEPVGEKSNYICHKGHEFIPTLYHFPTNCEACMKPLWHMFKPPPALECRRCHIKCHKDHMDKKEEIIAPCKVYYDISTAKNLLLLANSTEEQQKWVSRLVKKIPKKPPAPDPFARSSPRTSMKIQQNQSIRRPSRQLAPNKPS

Usually Ki stands for a measure of affinity in units of concentration, obtained from inhibition or displacement. With `O=C(NCC1(O)CC1)c1cccc(CNc2ncc(-c3ccncc3)c3c2CCO3)c1` [Example 9, N-((1-hydroxycyclopropyl)methyl)-3-(((7-(pyridin-4-yl)-2,3-dihydrofuro[3,2-c]pyridin-4-yl)amino)methyl)benzamide], the “Ratio (PKA/ROCK2)” value at PKA was “*** (ratio≥10)”. In addition, the Ki at ROCK2 and at ROCK1 was 3 to 30 nM each time.
Turning to `O=C(NC1CC2CN(C3COC3)CC2C1)c1cccc(CNc2ncc(-c3ccncc3)c3c2CCO3)c1` (single isomer, unassigned) [Example 43a, N-(2-(oxetan-3-yl)octahydrocyclopenta[c]pyrrol-5-yl)-3-(((7-(pyridin-4-yl)-2,3-dihydrofuro[3,2-c]pyridin-4-yl)amino)methyl)benzamide], the “Ratio (PKA/ROCK2)” value on PKA is listed as “*** (ratio≥10)”. In addition, the Ki at ROCK2 and at ROCK1 was no more than 3 nM in each case.
For the compound `O=C(NCCC1CCN(C2COC2)CC1)c1cccc(CNc2ncc(-c3ccncc3)c3c2CCO3)c1` [Example 42, N-(2-(1-(Oxetan-3-yl)piperidin-4-yl)ethyl)-3-(((7-(pyridin-4-yl)-2,3-dihydrofuro[3,2-c]pyridin-4-yl)amino)methyl)benzamide], the “Ratio (PKA/ROCK2)” value at PKA is on record as “*** (ratio≥10)”. Besides, the inhibitory constant (Ki) at ROCK2 and on ROCK1 was no more than 3 nM throughout.
Turning to `CNC(=O)c1cccc(CNc2ncc(-c3cc[nH]c(=O)c3)c3c2CCO3)c1` [Example B, N-methyl-3-(((7-(2-oxo-1,2-dihydropyridin-4-yl)-2,3-dihydrofuro[3,2-c]pyridin-4-yl)amino)methyl)benzamide, reference compound], at PKA, the “Ratio (PKA/ROCK2)” value is on record as “*** (ratio≥10)”. In addition, the Ki on ROCK2 and at ROCK1 was greater than 30 nM throughout.
Take `CNC(=O)c1cccc(CNc2ncc(-c3ccncc3)c3c2OCC3)c1` [Example C, N-methyl-3-(((4-(pyridin-4-yl)-2,3-dihydrofuro[2,3-c]pyridin-7-yl)amino)methyl)benzamide, reference compound]: the “Ratio (PKA/ROCK2)” value at PKA is reported as “*** (ratio≥10)”. Besides, the Ki on ROCK2 and at ROCK1 was greater than 30 nM in each case.
`Cn1ccc(CNC(=O)c2cccc(CNc3ncc(-c4ccncc4)c4c3CCO4)c2)n1` [Example 19, N-((1-methyl-1H-pyrazol-3-yl)methyl)-3-(((7-(pyridin-4-yl)-2,3-dihydrofuro[3,2-c]pyridin-4-yl)amino)methyl)benzamide]: the “Ratio (PKA/ROCK2)” value on PKA was “*** (ratio≥10)”. Besides, the figures for the Ki at ROCK2 and at ROCK1 were no more than 3 nM and 3 to 30 nM, respectively.
The like results for `O=C(NCc1cncnc1)c1cccc(CNc2ncc(-c3ccncc3)c3c2CCO3)c1` [Example 5, 3-(((7-(pyridin-4-yl)-2,3-dihydrofuro[3,2-c]pyridin-4-yl)amino)methyl)-N-(pyrimidin-5-ylmethyl)benzamide] were, in that order, “*** (ratio≥10)”, 3 to 30 nM and 3 to 30 nM.
Take `Cc1cc(CNC(=O)c2cccc(CNc3ncc(-c4ccncc4)c4c3CCO4)c2)no1` [Example 2, N-((5-methylisoxazol-3-yl)methyl)-3-(((7-(pyridin-4-yl)-2,3-dihydrofuro[3,2-c]pyridin-4-yl)amino)methyl)benzamide]: the “Ratio (PKA/ROCK2)” value on PKA was “*** (ratio≥10)”. The Ki was no more than 3 nM at ROCK2 and 3 to 30 nM on ROCK1.
As to `COc1ccc(NC(=O)c2cccc(CNc3ncc(-c4ccncc4)c4c3CCO4)c2)nc1` [Example 14, N-(5-methoxypyridin-2-yl)-3-(((7-(pyridin-4-yl)-2,3-dihydrofuro[3,2-c]pyridin-4-yl)amino)methyl)benzamide], the “Ratio (PKA/ROCK2)” value on PKA was “*** (ratio≥10)”. For the same compound, the Ki on ROCK2 and at ROCK1 was no more than 3 nM each time.
Take `CC(C)(C)N1CC(CNC(=O)c2cccc(CNc3ncc(-c4ccncc4)c4c3CCO4)c2)CC1=O` (centres unmarked) [Example 15, N-((1-(tert-butyl)-5-oxopyrrolidin-3-yl)methyl)-3-(((7-(pyridin-4-yl)-2,3-dihydrofuro[3,2-c]pyridin-4-yl)amino)methyl)benzamide]: the “Ratio (PKA/ROCK2)” value on PKA is listed as “*** (ratio≥10)”. The inhibition constant Ki at ROCK2 and at ROCK1 was no more than 3 nM in each case.
`O=C(NC1CC(CO)C1)c1cccc(CNc2ncc(-c3ccncc3)c3c2CCO3)c1` (centres unmarked) [Example 13, N-(3-(hydroxymethyl)cyclobutyl)-3-(((7-(pyridin-4-yl)-2,3-dihydrofuro[3,2-c]pyridin-4-yl)amino)methyl)benzamide]: the “Ratio (PKA/ROCK2)” value at PKA is “*** (ratio≥10)”. Further, the results for the Ki on ROCK2 and at ROCK1 were no more than 3 nM and 3 to 30 nM, respectively.
Regarding `CN(C)CCn1cc(C(=O)Nc2cccc(CNc3ncc(-c4ccncc4)c4c3CCO4)c2)cn1` [Example 41, 1-(2-(Dimethylamino)ethyl)-N-(3-(((7-(pyridin-4-yl)-2,3-dihydrofuro[3,2-c]pyridin-4-yl)amino)methyl)phenyl)-1H-pyrazole-4-carboxamide], the “Ratio (PKA/ROCK2)” value on PKA is listed as “*** (ratio≥10)”. The Ki is no more than 3 nM at ROCK2 and 3 to 30 nM at ROCK1.
In the same order, the values of `O=C(NC1CC2CN(C3COC3)CC2C1)c1cccc(CNc2ncc(-c3ccncc3)c3c2CCO3)c1` (single isomer, unassigned) [Example 43b, N-(2-(oxetan-3-yl)octahydrocyclopenta[c]pyrrol-5-yl)-3-(((7-(pyridin-4-yl)-2,3-dihydrofuro[3,2-c]pyridin-4-yl)amino)methyl)benzamide] are “*** (ratio≥10)”, no more than 3 nM and no more than 3 nM.
In the same order, the values of `O=C(NCCCF)c1cccc(CNc2ncc(-c3ccncc3)c3c2CCO3)c1` [Example 4, N-(3-fluoropropyl)-3-(((7-(pyridin-4-yl)-2,3-dihydrofuro[3,2-c]pyridin-4-yl)amino)methyl)benzamide] are “*** (ratio≥10)”, 3 to 30 nM and 3 to 30 nM.
The like results for `O=C(Nc1cccnn1)c1cccc(CNc2ncc(-c3ccncc3)c3c2CCO3)c1` [Example 17, N-(pyridazin-3-yl)-3-(((7-(pyridin-4-yl)-2,3-dihydrofuro[3,2-c]pyridin-4-yl)amino)methyl)benzamide] were, in that order, “*** (ratio≥10)”, 3 to 30 nM and 3 to 30 nM.
For `Cn1cnc(CNC(=O)c2cccc(CNc3ncc(-c4ccncc4)c4c3CCO4)c2)c1` [Example 3, N-((1-methyl-1H-imidazol-4-yl)methyl)-3-(((7-(pyridin-4-yl)-2,3-dihydrofuro[3,2-c]pyridin-4-yl)amino)methyl)benzamide], at PKA, the “Ratio (PKA/ROCK2)” value is “*** (ratio≥10)”. For the same compound, the Ki is no more than 3 nM at ROCK2 and 3 to 30 nM at ROCK1.
The like results for `O=C(NC1CC1)c1cccc(CNc2ncc(-c3ccncc3)c3c2CCO3)c1` [Example 16, N-cyclopropyl-3-(((7-(pyridin-4-yl)-2,3-dihydrofuro[3,2-c]pyridin-4-yl)amino)methyl)benzamide] were, in that order, “*** (ratio≥10)”, 3 to 30 nM and 3 to 30 nM.
Consider `O=C(NCc1ccon1)c1cccc(CNc2ncc(-c3ccncc3)c3c2CCO3)c1` [Example 6, N-(isoxazol-3-ylmethyl)-3-(((7-(pyridin-4-yl)-2,3-dihydrofuro[3,2-c]pyridin-4-yl)amino)methyl)benzamide], for which, at PKA, the “Ratio (PKA/ROCK2)” value is reported as “*** (ratio≥10)”. Besides, the figures for the inhibition constant Ki on ROCK2 and on ROCK1 were no more than 3 nM and 3 to 30 nM, respectively.
In the case of `CNC(=O)c1cccc(CNc2ncc(-c3ccncc3F)c3c2CCO3)c1` [Example 45, 3-(((7-(3-Fluoropyridin-4-yl)-2,3-dihydrofuro[3,2-c]pyridin-4-yl)amino)methyl)-N-methylbenzamide], the Ki at ROCK2 and at ROCK1 was 3 to 30 nM throughout.

The values are drawn from patent US12534474B2, “Dihydrofuropyridine derivatives as rho-kinase inhibitors” (CHIESI FARMACEUTICI S.P.A., priority 2020, dated 2026).
